Results reported in publication PMC3097154, “Antiviral activity of α-helical stapled peptides designed from the HIV-1 capsid dimerization domain” (Retrovirology, 2011).
Like-named read-outs stand apart in the source and are kept apart here. Positions of bridges follow the written chain, without caps; N, C: chain ends. Non-standard residues stand in square brackets, D forms with d. Residues, ends and D or L forms follow the SMILES beside them. S5 = C=CCCC[C@](C)(N)C(=O)O

How the values were obtained:
[1] = test system: wild type CTD (wtCTD) of HIV-1 CA; experiment: ITC dilution of CTD dimers in presence of peptide; type: binding; conditions: for Kdiss (apparent CTD dimer dissociation constant): ITC dilution, 30°C; for 200 μM CTD (fm), estimated fraction of CTD occurring as monomers: calculated from monomer-dimer equilibrium expressions
Protocol: The effect of the dimer interface peptide, NYAD-203, a soluble analog of NYAD-201, on dimer dissociation was first examined by isothermal titration calorimetry (ITC). Dilution of CTD by sequential ITC injections into buffer, pH 7.3, 30°;C gave a series of endothermic heat pulses (Figure 4) consistent with dissociation of protein oligomers modeled as dimers, with dimer dissociation constant (Kdiss) ~15 μM and dissociation enthalpy (ΔHdiss) of 10.7 kcal mole^-1. […] For such a mechanism, the apparent dimer dissociation constant should depend on the free peptide (inhibitor) concentration ([I]) and binding affinity (KI) as follows: [drawing 1]
or an approximate form that might be valid at high inhibitor concentrations: [drawing 2]
where Ci is the total peptide inhibitor concentration in the mixture. This analysis is, however, further complicated by apparent self-association of the peptide (see NMR section) that reduces the availability of free monomer (lower [I]) at higher concentrations and thus leads to underestimation of peptide binding affinities and a concentration dependence of apparent Ki. However, by use of the above equations and extrapolation to low concentrations, we obtain a value of Ki = 40 (±5) μM for the binding of stapled peptide (NYAD-203) monomer to CTD under these conditions.
The influence of the peptides on dimer dissociation of wild type CTD (wtCTD) was investigated by ITC (MicroCal VP-ITC) following established protocols. Proteins were exhaustively dialyzed against the 25 mM sodium phosphate buffer (pH 7.3) prior to experimental measurements. In a typical experiment, the ITC injection syringe was loaded with 250 μM protein, dissolved in dialysis buffer or dialysis buffer/peptide mixture and the calorimetric cell (ca. 1.4 ml active volume) initially contained only the identical buffer mixture. Typically titrations consisted of 28 injections of 10 μl, with 240-s equilibration between injections. The thermodynamic parameters were obtained and data were analyzed using MicroCal Origin 7.0 software, using an updated and corrected (June 2008) version of the dissociation analysis procedure, validated by comparison with earlier analysis methods.

[2] = test system: monomeric CTD mutant (W184A/M185A); experiment: Binding to monomeric CTD mutant; parameters: species or system HIV-1; conditions: data not shown
[3] = NMR of isolated peptide (self-association); type: physicochemical; conditions: 20 mM phosphate buffer pH 7.0, 288 K
[4] = test system: HIV-1 CA; conditions: 25°C, pH 7.3, ideal single-species model, CA alone 41,213
Protocol: In the second set of experiments, the possible effect of NYAD-203 on dimer stability was analyzed by sedimentation equilibrium.
Sedimentation equilibrium experiments were performed using a ProteomeLab XL-A analytical ultracentrifuge using 6-channel centerpieces in an An-60Ti rotor at 25°C. Protein samples were dialyzed into 50 mM sodium phosphate buffer (pH 7.3). […] Radial scans were measured at 280 nm. The data were fitted to an ideal single-species model as well as a rapid monomer-dimer equilibrium using the Beckman XL-A/XL-I Data Analysis Software (Version 6.03).

[5] = test system: GFP-Vpr-labeled HIV-1 virions in SupT1 cells; experiment: Virus entry, GFP-Vpr-labeled HIV-1 virions, FACS; type: cell-based; conditions: 111 nM

## IRQGPKEPFRDYVDR [NYAD-401]
[1]; unstapled control peptide
  ITC heat effect (binding): no apparent heat effect

## CSCC[C@@H]1NC(=O)[C@H](Cc2c[nH]c3ccccc23)NC(=O)[C@@](C)(NC(=O)[C@H](CCCCN)NC(=O)[C@@H](NC(=O)[C@H](C)NC(=O)[C@H](CCC(N)=O)NC(=O)[C@H](C)N)C(C)C)CCC/C=C\CCC[C@@](C)(C(=O)N[C@H](C(=O)N[C@@H](CC(C)C)C(=O)N[C@@H](CC(C)C)C(=O)N[C@H](C(=O)N[C@@H](C)C(=O)N[C@@H](CCCCN)C(=O)N[C@@H](CCCCN)C(=O)N[C@@H](CCCCN)C(=O)O)C(C)C)[C@@H](C)O)NC(=O)[C@H]([C@@H](C)O)NC1=O [NYAD-203] (H-AQAVK[S5]WMT[S5]TLLVAKKK-OH; staple (Z) 6-10; N-terminus and C-terminus assumed)
[1]; CI 50 μM NYAD-203, 25 mM sodium phosphate pH 7.3, 250 μM CTD in syringe
  Kdiss (apparent CTD dimer dissociation constant): 31.2 (±6.6) μM
[1]; CI 50 μM NYAD-203
  200 μM CTD (fm), estimated fraction of CTD occurring as monomers: 24%
[1]; CI 200 μM NYAD-203, pH 7.3
  Kdiss (apparent CTD dimer dissociation constant): 33.2 (±3.9) μM
[1]; CI 200 μM NYAD-203
  200 μM CTD (fm), estimated fraction of CTD occurring as monomers: 25%
[1]; CI 350 μM NYAD-203, pH 7.3
  Kdiss (apparent CTD dimer dissociation constant): 40.5 (±6.2) μM
[1]; CI 350 μM NYAD-203
  200 μM CTD (fm), estimated fraction of CTD occurring as monomers: 27%
[2]
  affinity for monomeric CTD mutant (W184A/M185A): no measurable affinity
[3]
  self-association of isolated peptide: self-associates to form polymeric species
[4]; CA:NYAD-203 = 1:1 (30 μM CA, 30 μM peptide)
  apparent molecular weight of CA: 30,343 Daltons
[4]; CA:NYAD-203 = 1:3 (30 μM CA, 90 μM peptide)
  apparent molecular weight of CA: 27,338 Daltons

## enfuvirtide [T-20]
[5]
  inhibition of viral entry: substantially inhibited viral entry
